Activity calls are given as the source filed them. The rule behind the calls is not given here.
How the values were obtained:
[1] = molecular target: T1, Sodium channel protein type 5 subunit alpha (Homo sapiens, UniProt Q14524); assay: Inhibition of human sodium Nav1.5 channel expressed in HEK293 cells assessed as inhibition of veratridine-induced late sodium current elicited at -30 mV from holding potential of -110 mV at 10 uM by patch clamp technique; type: cell-based; conditions: for inhibition at 10 µM: HEK293, human
T1 sequence (Q14524 whole entry): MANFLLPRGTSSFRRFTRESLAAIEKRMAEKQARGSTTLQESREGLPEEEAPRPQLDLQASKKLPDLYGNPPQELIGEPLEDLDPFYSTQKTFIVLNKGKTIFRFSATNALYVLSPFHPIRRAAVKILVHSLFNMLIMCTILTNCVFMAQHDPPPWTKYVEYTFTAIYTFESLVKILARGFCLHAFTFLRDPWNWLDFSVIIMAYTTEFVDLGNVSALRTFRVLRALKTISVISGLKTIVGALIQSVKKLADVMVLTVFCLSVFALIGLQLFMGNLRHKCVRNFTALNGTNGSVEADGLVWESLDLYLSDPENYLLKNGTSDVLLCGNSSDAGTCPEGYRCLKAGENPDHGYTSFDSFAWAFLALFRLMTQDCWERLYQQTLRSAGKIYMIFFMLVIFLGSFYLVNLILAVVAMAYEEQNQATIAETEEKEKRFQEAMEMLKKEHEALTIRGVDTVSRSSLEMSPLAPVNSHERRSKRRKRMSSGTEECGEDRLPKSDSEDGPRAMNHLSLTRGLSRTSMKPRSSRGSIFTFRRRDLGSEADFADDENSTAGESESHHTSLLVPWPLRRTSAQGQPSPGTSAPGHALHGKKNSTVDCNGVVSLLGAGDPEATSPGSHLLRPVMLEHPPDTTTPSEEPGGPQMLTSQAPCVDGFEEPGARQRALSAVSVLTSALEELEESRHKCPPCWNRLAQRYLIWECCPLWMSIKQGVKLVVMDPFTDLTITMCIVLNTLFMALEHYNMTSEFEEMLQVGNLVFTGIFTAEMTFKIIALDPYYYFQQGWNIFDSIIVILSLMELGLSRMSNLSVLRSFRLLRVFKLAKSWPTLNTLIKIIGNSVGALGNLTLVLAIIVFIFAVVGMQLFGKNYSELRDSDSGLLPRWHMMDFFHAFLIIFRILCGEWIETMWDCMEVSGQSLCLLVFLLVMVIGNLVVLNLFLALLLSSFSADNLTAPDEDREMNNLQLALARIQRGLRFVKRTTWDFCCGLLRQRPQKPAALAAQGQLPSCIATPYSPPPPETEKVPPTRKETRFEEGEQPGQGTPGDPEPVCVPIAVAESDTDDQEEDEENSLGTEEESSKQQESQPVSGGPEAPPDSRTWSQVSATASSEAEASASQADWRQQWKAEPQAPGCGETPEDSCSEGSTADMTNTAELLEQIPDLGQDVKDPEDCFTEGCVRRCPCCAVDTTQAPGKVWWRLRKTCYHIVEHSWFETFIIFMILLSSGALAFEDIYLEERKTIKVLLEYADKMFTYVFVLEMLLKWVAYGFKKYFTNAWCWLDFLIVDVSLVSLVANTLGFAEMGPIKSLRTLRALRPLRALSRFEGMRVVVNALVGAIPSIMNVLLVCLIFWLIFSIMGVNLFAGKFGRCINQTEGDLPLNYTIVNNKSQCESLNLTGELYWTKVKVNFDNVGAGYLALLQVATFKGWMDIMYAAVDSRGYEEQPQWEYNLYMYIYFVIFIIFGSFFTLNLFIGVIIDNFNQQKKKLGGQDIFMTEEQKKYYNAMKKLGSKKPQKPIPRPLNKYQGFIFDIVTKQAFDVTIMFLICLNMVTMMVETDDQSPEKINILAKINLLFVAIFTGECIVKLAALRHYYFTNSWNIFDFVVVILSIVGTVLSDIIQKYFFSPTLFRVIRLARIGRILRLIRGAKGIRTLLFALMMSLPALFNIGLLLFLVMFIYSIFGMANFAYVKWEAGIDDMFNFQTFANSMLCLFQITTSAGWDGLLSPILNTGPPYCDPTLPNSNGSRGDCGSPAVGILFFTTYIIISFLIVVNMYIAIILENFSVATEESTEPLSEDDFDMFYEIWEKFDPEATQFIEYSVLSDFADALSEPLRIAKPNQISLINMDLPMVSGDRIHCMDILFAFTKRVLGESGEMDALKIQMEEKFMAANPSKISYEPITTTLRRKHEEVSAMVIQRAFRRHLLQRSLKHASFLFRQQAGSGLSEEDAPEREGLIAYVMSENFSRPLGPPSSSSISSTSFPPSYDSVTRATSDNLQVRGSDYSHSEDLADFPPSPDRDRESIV

[2] = molecular target: T1, Sodium channel protein type 5 subunit alpha; assay: Inhibition of human sodium Nav1.5 channel expressed in HEK293 cells assessed as inhibition of veratridine-induced late sodium current elicited at -30 mV from holding potential of -90 mV at 10 uM by patch clamp technique; type: cell-based; conditions: for inhibition at 10 µM: HEK293, human
Cardiac atrium [3] = assay: tissue or blood; conditions: Rattus norvegicus, Wistar, 0.25 h, read-out: INH
Description: (§1) Inhibition of veratridine-induced diastolic contracture in Wistar rat atrium assessed as inhibition of systolic isometric tension of at 1 uM 15 mins

Heart = assay: Inhibition of global ischemia-induced diastolic contracture in isolated Langendorff perfused guinea pig model heart at 1 uM after 15 mins; type: functional, Cavia porcellus
Cardiac atrium [4] = conditions: Rattus norvegicus, Wistar, 1 uM
Description: as §1

Oryctolagus cuniculus [5] = assay: Reversal of ischemia-induced ST segment elevation in iv dosed anesthetized New Zealand white rabbit; type: functional
Oryctolagus cuniculus [6] = assay: Effect on heart rate in anesthetized New Zealand white rabbit myocardial ischemia model assessed as beats per minute at 0.04 mg/kg; type: functional
Oryctolagus cuniculus [7] = assay: Effect on heart rate in anesthetized New Zealand white rabbit myocardial ischemia model assessed as beats per minute at 0.16 mg/kg; type: functional
Oryctolagus cuniculus [8] = assay: Effect on heart rate in anesthetized New Zealand white rabbit myocardial ischemia model assessed as beats per minute at 0.63 mg/kg; type: functional
Oryctolagus cuniculus [9] = assay: Effect on heart rate in anesthetized New Zealand white rabbit myocardial ischemia model assessed as beats per minute at 2.5 mg/kg; type: functional
Oryctolagus cuniculus [10] = assay: Reversal of ischemia-induced ST segment elevation in anesthetized New Zealand white rabbit at 2.5 mg/kg, iv; type: functional, organism-based; parameters: dose 2.5 mg/kg
[11] = molecular target: T1, Sodium channel protein type 5 subunit alpha; assay: Inhibition of sodium Nav1.5 channel assessed as inhibition of late sodium current elicited at -30 mV from holding potential of -110 mV
[12] = molecular target: T1, Sodium channel protein type 5 subunit alpha; assay: Inhibition of sodium Nav1.5 channel assessed as inhibition of late sodium current elicited at -30 mV from holding potential of -90 mV
Oryctolagus cuniculus [13] = assay: Reversal of ischemia-induced ST segment elevation in po dosed anesthetized New Zealand white rabbit; type: functional
Oryctolagus cuniculus [14] = assay: Ratio of ED50 for reversal of ischemia-induced ST segment elevation in po dosed New Zealand white rabbit to ED50 for reversal of ischemia-induced ST segment elevation iv dosed New Zealand white rabbit; type: functional
Oryctolagus cuniculus [15] = assay: Effect on heart rate in anesthetized New Zealand white rabbit myocardial ischemia model assessed as beats per minute at 0.01 mg/kg; type: functional

Structure (SMILES)	inhibition at 10 µM [1] [%]	inhibition at 10 µM [2] [%]	inhibition at 1 µM (Cardiac atrium [3]) [%]	inhibition (INH) (Heart) [%]	other results
COc1ccccc1SCC(O)CN[C@H]1COc2ccccc2SC1 (mixture of isomers)	16	21	26	–	–
COc1ccccc1SC[C@H](CN[C@@H]1COc2ccccc2SC1)OC	12	27	45	64	–
C=C(CN[C@@H]1COc2ccccc2SC1)CSc1ccccc1OC	36	37	26	–	–
COc1ccccc1SCCCN[C@@H]1COc2ccccc2SC1	–	–	3	–	–
COc1ccccc1SC[C@@H](C)CN[C@H]1COc2ccccc2SC1	31	41	25	–	–
COc1ccccc1SC[C@H](C)CN[C@@H]1COc2ccccc2SC1	22	34	38	–	–
NC1=N[C@H](O)[C@H]2[C@H]3O[C@]4(O)O[C@@H]([C@@H](O)[C@@]2(N1)[C@@H]4O)[C@]3(O)CO [TETRODOTOXIN]	–	–	–	–	inhibition (INH) ([1]; human, hek293, 10 µM): 79%; inhibition (INH) ([2]; human, hek293, 10 µM): 87%; inhibition (Cardiac atrium [4]): 64%
COc1ccccc1SC[C@@H](F)CN[C@@H]1COc2ccccc2SC1	11	19	32	–	–
COc1ccccc1SC[C@H](CN[C@@H]1COc2ccccc2SC1)OC(=O)c1ccccc1	–	–	3	–	–
COc1cc2c(cc1OC)CC(=O)N(CCCN(C)C[C@H]1Cc3cc(OC)c(OC)cc31)CC2 [IVABRADINE]	–	–	–	–	ED50 (Oryctolagus cuniculus [5]): 0.59 mg/kg; Activity (Oryctolagus cuniculus [6]): -3.4 bpm; Activity (Oryctolagus cuniculus [7]): -20.7 bpm; Activity (Oryctolagus cuniculus [8]): -69.4 bpm; Activity (Oryctolagus cuniculus [9]): -112.6 bpm; Activity (Oryctolagus cuniculus [10]): Active
COc1ccccc1SCC(O)CN[C@@H]1COc2ccccc2SC1 (mixture of isomers)	37	42	50	–	–
COc1ccccc1SC[C@H](CN[C@@H]1COc2ccccc2SC1)C(C)C	31	34	90	31	–
COc1ccccc1SC[C@H](C)CN[C@H]1COc2ccccc2SC1	30	44	26	–	–
CCO[C@@H](CN[C@@H]1COc2ccccc2SC1)CSc1ccccc1OC	22	34	46	33	–
COc1ccccc1SC[C@H](O)CN[C@@H]1COc2ccccc2SC1	26	30	7	–	–
COc1ccccc1SC[C@@H](O)CN[C@@H]1COc2ccccc2SC1	69	75	54	14	–
CC[C@@H](CN[C@@H]1COc2ccccc2SC1)CSc1ccccc1OC	46	54	86	68	–
COc1ccccc1SC[C@@H](C)CN[C@@H]1COc2ccccc2SC1	53	70	74	65	IC50 [11]: 2.56 µM; IC50 [12]: 5.77 µM; ED50 (Oryctolagus cuniculus [5]): 0.05 mg/kg; ED50 (Oryctolagus cuniculus [13]): 0.13 mg/kg; Ratio ED50 (Oryctolagus cuniculus [14]): 2.6; Activity (Oryctolagus cuniculus [6]): 0.3 bpm; Activity (Oryctolagus cuniculus [7]): -6.4 bpm; Activity (Oryctolagus cuniculus [8]): -3.2 bpm; Activity (Oryctolagus cuniculus [9]): -8.6 bpm; Activity (Oryctolagus cuniculus [15]): -3.2 bpm
CCC[C@@H](CN[C@@H]1COc2ccccc2SC1)CSc1ccccc1OC	17	23	23	–	–
COc1ccccc1SCC(CN[C@@H]1COc2ccccc2SC1)=C(C)C	31	37	42	16	–
COc1ccccc1SC[C@H](CN[C@@H]1COc2ccccc2SC1)OC(C)=O	–	–	9	–	–
COc1ccccc1OCC(O)CN1CCN(CC(=O)Nc2c(C)cccc2C)CC1 (configuration not stated) [RANOLAZINE]	11	19	–	–	ED50 (Oryctolagus cuniculus [5]): > 2.5 mg/kg
COc1ccc(CCN(C)CCCOc2nsc(-c3ccccc3)n2)cc1OC	60	60	45	39	–
CCCO[C@@H](CN[C@@H]1COc2ccccc2SC1)CSc1ccccc1OC	27	27	30	–	–
